Experimental data published in patent US20250154198A1, “PEPTIDE INHIBITORS OF INTERLEUKIN-23 RECEPTOR” (Zealand Pharma A/S, priority 2021, published 2025).
Each block holds one compound with its values, some of them ahead of it. *1 amine or outer side, *2 acyl side, *3 side chain or, on linkers, in order; H or OH if unused. Where a SMILES comes first, the peptide text is derived from it. Bridges are numbered along the chain shown (N, C = ends). [ ]: non-standard residue; d: D form. The star is where a group is joined. Me3N+(CH2)2O(CH2)2O(CH2)2CO = C[N+](C)(C)CCOCCOCCC(=O)*; Trp(4-F) = N[C@@H](Cc1c[nH]c2cccc(F)c12)C(=O)O; 2Nal = N[C@@H](Cc1ccc2ccccc2c1)C(=O)O; AEF = NCCOc1ccc(C[C@H](N)C(=O)O)cc1; X1 = O=C(Cc1ccc(CN[*:1])cc1)[*:2]; 4Pal = N[C@@H](Cc1ccncc1)C(=O)O; αMeL = CC(C)C[C@](C)(N)C(=O)O; CH2COCH2 = O=C(C[*:1])C[*:2]; 3Amb = NCc1cccc(C(=O)O)c1; dDab = NCC[C@@H](N)C(=O)O; Dab = NCC[C@H](N)C(=O)O; βAla = NCCC(=O)O

Biological target: T1, human IL-23R (Homo sapiens, UniProt Q5VWK5)
T1 construct: UniProtKB—Q5VWK5, amino acids 22-629; secretion signal of the plasmid (Promega N1371); expressed in transfected cells
T1 sequence (Q5VWK5 22-629): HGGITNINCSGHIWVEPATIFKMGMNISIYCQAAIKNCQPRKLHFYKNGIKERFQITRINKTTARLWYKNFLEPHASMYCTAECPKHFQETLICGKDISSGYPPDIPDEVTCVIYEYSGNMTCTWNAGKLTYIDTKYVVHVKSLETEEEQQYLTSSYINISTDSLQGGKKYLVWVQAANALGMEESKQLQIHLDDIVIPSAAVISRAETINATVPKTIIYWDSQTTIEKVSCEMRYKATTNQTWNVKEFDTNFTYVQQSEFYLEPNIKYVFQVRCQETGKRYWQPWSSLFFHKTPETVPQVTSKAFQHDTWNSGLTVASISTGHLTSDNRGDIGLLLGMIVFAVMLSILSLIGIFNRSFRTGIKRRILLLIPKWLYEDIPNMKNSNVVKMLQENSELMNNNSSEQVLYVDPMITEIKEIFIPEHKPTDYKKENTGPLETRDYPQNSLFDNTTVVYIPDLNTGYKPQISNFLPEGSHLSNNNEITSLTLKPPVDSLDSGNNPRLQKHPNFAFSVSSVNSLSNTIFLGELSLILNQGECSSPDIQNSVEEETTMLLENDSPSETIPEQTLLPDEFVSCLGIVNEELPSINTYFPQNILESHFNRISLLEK
Assay: Binding assay (NanoBRET displacement of fluorophore-labelled reference compound) for estimating binding affinity to human IL-23R
Details: Table 3-1; read-out: Ki hIL-23R
From the text: Binding Assay for Estimating Binding Affinity of Compounds to Human IL-23R
The compound binding affinity for IL-23R was estimated by the ability of compounds to displace a fluorophore-labelled reference compound from the human IL-23R. The assay principle relies on Bioluminescence Resonance Energy Transfer (BRET) between a fluorophore-labelled reference compound binding to the IL-23R part of a fusion protein consisting of the IL-23R fused to a Nanoluc luciferase enzyme (Nanoluc). The Nanoluc is placed in the N-terminus in close proximity to the binding domain of the ligand. Upon close proximity between the fluorophore of the fluorophore-labelled compound and the Nanoluc of the fusion protein, bioluminescence energy generated from conversion of a Nanoluc substrate, is transferred to the fluorophore resulting in an increase in BRET. In presence of an unlabelled compound, the unlabelled compound displaces the fluorophore-labelled peptide from its binding site resulting in a decrease in BRET. The concentration for which half of the fluorophore-labelled peptide is displaced by the unlabelled compound depends on the affinity of the compound for the IL-23R, and is termed the IC50 concentration. An estimated affinity (K) of the unlabelled compound for the IL-23R may be calculated using the Cheng-Prussov equation, which takes into account the concentration of the fluorophore-labelled compound used, and the affinity of the fluorophore-labelled compound for IL-23R.
The plasmid also contained a gene to confer resistance for the antibiotic hygromycin. A cell line stably expressing the Nluc-IL23R fusion protein was generated by transfection of HEK293 cells with the expression plasmid and selected with hygromycin for 3 weeks in Growth medium consisting of DMEM w/Glutamax-I containing, 10% V/V FBS, 1% V/V P/S, 1 mM Sodium Pyruvate, and 1×NEAA, and 0.3 mg/mL hygromycin. The remaining cells were propagated and considered a stable expressing Nluc-IL23R fusion protein pool clone.
Cells expressing the Nluc-IL23R fusion protein were expanded in Growth medium and membranes prepared by homogenization of a cell pellet from 18 T175 flasks (4° C. in subsequent steps). The cell pellet was lysed Tris 10 mM, 7.5, 1 mM EDTA and protease inhibitors (Complete, Roche) and homogenized using a 15 mL glass-dounce by 50 strokes. The homogenate was spun at spin @1500 rpm for 10 min, the supernatant transferred to SV-34 tubes and spun at 40000 g for 20 min at 4° C. to pellet the crude membranes. The supernatant was then removed, the pellet resuspended in 5 mL buffer containing 50 mM HEPES pH 7.4, 5 mM EGTA, and 5 mM MgCl2, and homogenized. Aliquots of the resuspended and homogenized membranes containing the Nluc-IL23R fusion protein were stored at −80° C. until use.
The plate was sealed with light impermeable plate seals, and incubated on a orbital shaker 400 rpm for 2 hours at room temperature. To determine the BRET ratio, the plate seal was removed and 25 μL of the Nanoluc substrate (Promega N1572) diluted 1:500 was added to each well and incubated for 1-2 minutes on an orbital shaker at 400 rpm. […] The BRET ratio was calculated as the fluorescence from the TAMRA/nanoluc bioluminescence. The IC50 for each compound was determined by computer-aided curve fitting using a 4-parameter logistic (4PL) non-linear model.

Compound: CC(C)C[C@]1(C)NC(=O)[C@H](Cc2ccc3ccccc3c2)NC(=O)[C@H](Cc2ccc(OCCN)cc2)NC(=O)[C@@H]2CSCC(=O)CSC[C@H](NC(=O)[C@H](CO)NC(=O)c3cccc(c3)CNC(=O)CC[C@@H](C(=O)N[C@@H](CCCNC(=N)N)C(=O)N[C@@H](Cc3ccncc3)C(N)=O)NC1=O)C(=O)N[C@@H](Cc1c[nH]c3ccccc13)C(=O)N[C@@H](CCC(N)=O)C(=O)N2 [Compound 79, [(3-Aminomethyl)benzoyl](1c)*SC(2a)WQC(2a)[Y(2-aminoethoxy)][2-Nal][2-Me-Leu]E(1c)R[3-(4-Pyridyl)-Ala]-[NH2]] ([3Amb]SCWQC[AEF][2Nal][αMeL]ER[4Pal]-NH2; linker 3-6 via CH2COCH2; lactam N-10)
- Ki: 2.09 nM

Compound: CC(=O)N[C@H]1CCCCNC(=O)CC[C@@H](C(=O)N[C@H](CCCNC(=N)N)C(N)=O)NC(=O)[C@](C)(CC(C)C)NC(=O)[C@H](Cc2ccc3ccccc3c2)NC(=O)[C@H](Cc2ccc(OCCN)cc2)NC(=O)[C@@H]2CSCC(=O)CSC[C@H](NC(=O)[C@H](CO)NC1=O)C(=O)N[C@@H](Cc1c[nH]c3ccccc13)C(=O)N[C@@H](CCC(N)=O)C(=O)N2 [Compound 84, [Ac]-K(1c)SC(2a)WQC(2a)[Y(2-aminoethoxy)][2-Nal][2-Me-Leu]E(1c)[{d}R]-[NH2]] (Ac-KSCWQC[AEF][2Nal][αMeL]E[dR]-NH2; lactam 1-10; linker 3-6 via CH2COCH2)
- Ki: 0.922 nM

Compound: CC(C)C[C@]1(C)NC(=O)[C@H](Cc2ccc3ccccc3c2)NC(=O)[C@H](Cc2ccc(OCCN)cc2)NC(=O)[C@@H]2CSCC(=O)CSC[C@H](NC(=O)[C@H](CO)NC(=O)Cc3ccc(cc3)CNC(=O)CC[C@@H](C(=O)N[C@H](CCCNC(=N)N)C(=O)O)NC1=O)C(=O)N[C@@H](Cc1c[nH]c3ccccc13)C(=O)N[C@@H](CCC(N)=O)C(=O)N2 [Compound 108, [4-Aminomethyl-phenylacetyl](1c)*SC(2a)WQC(2a)[Y(2-aminoethoxy)][2-Nal][2-Me-Leu]E(1c)[{d}R]-[OH]] ([X1]SCWQC[AEF][2Nal][αMeL]E[dR]-OH; linker 3-6 via CH2COCH2; lactam N-10)
- Ki: 0.0995 nM

Compound: CC(C)C[C@]1(C)NC(=O)[C@H](Cc2ccc3ccccc3c2)NC(=O)[C@H](Cc2ccc(OCCN)cc2)NC(=O)[C@@H]2CSCC(=O)CSC[C@H](NC(=O)[C@H](CO)NC(=O)Cc3ccc(cc3)CNC(=O)CC[C@@H](C(=O)N[C@H](CCNC(=O)CCOCCOCC[N+](C)(C)C)C(N)=O)NC1=O)C(=O)N[C@@H](Cc1c[nH]c3ccccc13)C(=O)N[C@@H](CCC(N)=O)C(=O)N2 [Compound 109, [4-Aminomethyl-phenylacetyl](1c)*SC(2a)WQC(2a)[Y(2-aminoethoxy)][2-Nal][2-Me-Leu]E(1c)[{d}2,4-Diaminobutanoyl([2-(trimethyl-2-aminoethoxy)ethoxy]propyl)]-[NH2]] ([X1]SCWQC[AEF][2Nal][αMeL]E[dDab](Me3N+(CH2)2O(CH2)2O(CH2)2CO)-NH2; linker 3-6 via CH2COCH2; lactam N-10)
- Ki: 0.46 nM

Compound: CC(C)C[C@]1(C)NC(=O)[C@H](Cc2ccc3ccccc3c2)NC(=O)[C@H](Cc2ccc(OCCN)cc2)NC(=O)[C@@H]2CSCC(=O)CSC[C@H](NC(=O)[C@H](CO)NC(=O)Cc3ccc(cc3)CNC(=O)CC[C@@H](C(=O)N[C@H](CCC(N)=O)C(N)=O)NC1=O)C(=O)N[C@@H](Cc1c[nH]c3ccccc13)C(=O)N[C@@H](CCC(N)=O)C(=O)N2 [Compound 115, [4-Aminomethyl-phenylacetyl](1c)*SC(2a)WQC(2a)[Y(2-aminoethoxy)][2-Nal][2-Me-Leu]E(1c)[{d}Q]-[NH2]] ([X1]SCWQC[AEF][2Nal][αMeL]E[dQ]-NH2; linker 3-6 via CH2COCH2; lactam N-10)
- Ki: 0.182 nM

Compound: CC(C)C[C@]1(C)NC(=O)[C@H](Cc2ccc3ccccc3c2)NC(=O)[C@H](Cc2ccc(OCCN)cc2)NC(=O)[C@@H]2CSCC(=O)CSC[C@H](NC(=O)[C@H](CO)NC(=O)Cc3ccc(cc3)CNC(=O)CC[C@@H](C(=O)N[C@H](Cc3c[nH]cn3)C(N)=O)NC1=O)C(=O)N[C@@H](Cc1c[nH]c3ccccc13)C(=O)N[C@@H](CCC(N)=O)C(=O)N2 [Compound 117, [4-Aminomethyl-phenylacetyl](1c)*SC(2a)WQC(2a)[Y(2-aminoethoxy)][2-Nal][2-Me-Leu]E(1c)[{d}H]-[NH2]] ([X1]SCWQC[AEF][2Nal][αMeL]E[dH]-NH2; linker 3-6 via CH2COCH2; lactam N-10)
- Ki: 0.188 nM

More lines, now with the values ahead:

- Ki: 0.303 nM
Compound: CC(C)C[C@]1(C)NC(=O)[C@H](Cc2ccc3ccccc3c2)NC(=O)[C@H](Cc2ccc(OCCN)cc2)NC(=O)[C@@H]2CSCC(=O)CSC[C@H](NC(=O)[C@H](CO)NC(=O)Cc3ccc(cc3)CNC(=O)CC[C@@H](C(=O)NCCC(N)=O)NC1=O)C(=O)N[C@@H](Cc1c[nH]c3ccccc13)C(=O)N[C@@H](CCC(N)=O)C(=O)N2 [Compound 119, [4-Aminomethyl-phenylacetyl](1c)*SC(2a)WQC(2a)[Y(2-aminoethoxy)][2-Nal][2-Me-Leu]E(1c)[3-Aminopropanoyl]-[NH2]] ([X1]SCWQC[AEF][2Nal][αMeL]E[βAla]-NH2; linker 3-6 via CH2COCH2; lactam N-10)

- Ki: 0.718 nM
Compound: CC(C)C[C@]1(C)NC(=O)[C@H](Cc2ccc3ccccc3c2)NC(=O)[C@H](Cc2ccc(OCCN)cc2)NC(=O)[C@@H]2CCNC(=O)CC[C@H](NC(=O)[C@H](C(C)C)NC(=O)Cc3ccc(cc3)CNC(=O)CC[C@@H](C(=O)N[C@@H](CCN)C(N)=O)NC1=O)C(=O)N[C@@H](Cc1c[nH]c3ccccc13)C(=O)N[C@@H](CCC(N)=O)C(=O)N2 [Compound 126, [4-Aminomethyl-phenylacetyl](1c)*VE(2c)WQ[Dab](2c)[Y(2-aminoethoxy][2-Nal][2-Me-Leu]E(1c)[Dab]-[NH2]] ([X1]VEWQ[Dab][AEF][2Nal][αMeL]E[Dab]-NH2; lactam 3-6, N-10)

- Ki: 0.17 nM
Compound: CC(C)[C@]1(C)NC(=O)[C@H](Cc2ccc3ccccc3c2)NC(=O)[C@H](Cc2ccc(OCCN)cc2)NC(=O)[C@@H]2CCNC(=O)CC[C@H](NC(=O)[C@H](CO)NC(=O)Cc3ccc(cc3)CNC(=O)CC[C@@H](C(=O)N[C@@H](CCN)C(N)=O)NC1=O)C(=O)N[C@@H](Cc1c[nH]c3ccccc13)C(=O)N[C@@H](CCC(N)=O)C(=O)N2 [Compound 136, [4-Aminomethyl-phenylacetyl](1c)*SE(2c)WQ[Dab](2c)[Y(2-aminoethoxy)][2-Nal][2-Me-Val]E(1c)[Dab]-[NH2]]

- Ki: 0.723 nM
Compound: CC(C)C[C@]1(C)NC(=O)[C@H](Cc2ccc3ccccc3c2)NC(=O)[C@H](Cc2ccc(OCCN)cc2)NC(=O)[C@@H]2CCNC(=O)CC[C@H](NC(=O)[C@H](CO)NC(=O)Cc3ccc(cc3)CNC(=O)CC[C@@H](C(=O)N[C@@H](CCN)C(N)=O)NC1=O)C(=O)N[C@@H](Cc1c[nH]c3cccc(F)c13)C(=O)N[C@@H](CCC(N)=O)C(=O)N2 [Compound 138, [4-Aminomethyl-phenylacetyl](1c)*SE(2c)[4-F-Trp]Q[Dab](2c)[Y(2-aminoethoxy)][2-Nal][2-Me-Leu]E(1c)[Dab]-[NH2]] ([X1]SE[Trp(4-F)]Q[Dab][AEF][2Nal][αMeL]E[Dab]-NH2; lactam 3-6, N-10)
